Source: patent US10736974B2, “Scaffolds and multifunctional intermediates for imaging PSMA and cancer therapy” (THE JOHNS HOPKINS UNIVERSITY, priority 2014, dated 2020)
“Also recorded” adds a separate entry of the source.

Columns and labels:
[1] = test system: PSMA+ PC-3 PIP and PSMA- PC-3 flu tumors; test: Ex vivo biodistribution in mice bearing PSMA+ PC-3 PIP and PSMA- PC-3 flu xenografts; details: for Biodistribution, PC-3 Pip tumor: PSMA+ PC-3 PIP tumor; for Biodistribution, PC-3 flu tumor: PSMA- PC-3 flu tumor; for Biodistribution, Lrg int.: large intestine; for Biodistribution, Sm. int.: small intestine
[2] = test system: PSMA+ PC-3 PIP and PSMA- PC-3 flu tumors; test: PET-CT imaging of NOD/SCID mice bearing PSMA+ PC-3 PIP and PSMA- PC-3 flu tumors; format: in vivo
Experimental: FIG. 8A, FIG. 8B, FIG. 8C, and FIG. 8D show positron emission tomography-computed tomography (PET-CT) images in male NOD-SCID mice injected with the radiolabeled [^18F]XY-20 compound at (FIG. 8A) 5-15 minutes, (FIG. 8B) 15-25 minutes, (FIG. 8C) 25-35 minutes and (FIG. 8D) 50-60 minutes after injection; the mice on the right in each panel were pretreated with ZJ43 and the mice on the left in each panel were not pretreated with ZJ43. The green arrows point to the PSMA-negative PC3-flu tumor and the red arrows point to the PSMA-expressing (PC3-PIP) tumor (target); 200 microCi of radiotracer was injected;
Dynamic and whole-body PET and CT images were acquired on an eXplore VISTA small-animal PET (GE Healthcare) and an X-SPECT small SPECT/CT system (Gamma Medica Ideas), respectively. For imaging studies, anesthesia was induced with 3% and maintained under 1.5% isoflurane (v/v) in oxygen. PET or PET-CT imaging studies were performed on NOD/SCID mice bearing PSMA+PC-3 PIP and PSMA-PC-3 flu tumors. Following intravenous injection of [^18F]12 ([^18F]XY-20) PET images were acquired at 10 min, 30 min, 1 h, 2 h and 4 h p.i. as a pseudodynamic scan, i.e., a sequence of successive whole-body images were acquired in two bed positions. The dwell time at each bed position was 10 min for a total scan time of 20 minutes. An energy window of 250-700 keV was used. […]

[3] = test system: PC-3 PIP (PSMA+) cells; test: In vitro stability studies (TLC of radiometabolites) in PC-3 PIP and PC-3 flu cells; details: 30 minutes incubation, PC-3 PIP vs PC-3 flu cells

O=C(O)CC[C@H](NC(=O)O[C@@H](CCCCNC(=O)c1ccc([18F])cc1)C(=O)O)C(=O)O [[^18F]12]
tumor and kidney uptake and clearance (pharmacokinetics in words) ([1]; PC-3 PIP tumor mice): modest PSMA+PC-3 PIP tumor uptake but rapidly cleared from both PC-3 PIP tumor and normal tissues including kidneys | Biodistribution, PC-3 Pip tumor ([1]; 30 min, N = 7): 6.33±1.55 percent injected dose/gram | Biodistribution, PC-3 Pip tumor ([1]; 60 min, N = 4): 3.52 ± 1.48 percent injected dose/gram | Biodistribution, PC-3 Pip tumor ([1]; 90 min, N = 4): 0.94 ± 0.24 percent injected dose/gram | Biodistribution, PC-3 Pip tumor ([1]; 180 min, N = 4): 0.22 ± 0.07 percent injected dose/gram | Biodistribution, PC-3 flu tumor ([1]; 30 min, N = 7): 1.89 ± 0.78 percent injected dose/gram | Biodistribution, PC-3 flu tumor ([1]; 60 min, N = 4): 0.72 ± 0.12 percent injected dose/gram | Biodistribution, PC-3 flu tumor ([1]; 90 min, N = 4): 0.37 ± 0.08 percent injected dose/gram | Biodistribution, PC-3 flu tumor ([1]; 180 min, N = 4): 0.12 0.03 percent injected dose/gram | clearance of radioactivity from organs ([1]; after 30 min): radioactivity rapidly cleared from all organs including PC-3 PIP tumor | Biodistribution, bladder ([1]; 30 min, N = 7): 22.4 ± 22.5 percent injected dose/gram | Biodistribution, bladder ([1]; 60 min, N = 4): 5.50 ± 3.45 percent injected dose/gram | Biodistribution, bladder ([1]; 90 min, N = 4): 2.11 ± 1.21 percent injected dose/gram | Biodistribution, bladder ([1]; 180 min, N = 4): 2.74 ± 0.48 percent injected dose/gram | Biodistribution, blood ([1]; 30 min, N = 7): 2.51 ± 1.75 percent injected dose/gram | Biodistribution, blood ([1]; 60 min, N = 4): 1.07 ± 0.26 percent injected dose/gram | Biodistribution, blood ([1]; 90 min, N = 4): 0.20 ± 0.14 percent injected dose/gram | Biodistribution, blood ([1]; 180 min, N = 4): 0.08 ± 0.06 percent injected dose/gram | Biodistribution, bone ([1]; 30 min, N = 7): 2.05 ± 2.39 percent injected dose/gram | Biodistribution, bone ([1]; 60 min, N = 4): 0.72 ± 0.31 percent injected dose/gram | Biodistribution, bone ([1]; 90 min, N = 4): 0.79 ± 0.16 percent injected dose/gram | Biodistribution, bone ([1]; 180 min, N = 4): 0.63 ± 0.14 percent injected dose/gram | Biodistribution, fat ([1]; 30 min, N = 7): 1.23 ± 1.88 percent injected dose/gram | Biodistribution, fat ([1]; 60 min, N = 4): 0.15 ± 0.05 percent injected dose/gram | Biodistribution, fat ([1]; 90 min, N = 4): 0.11 ± 0.06 percent injected dose/gram | Biodistribution, fat ([1]; 180 min, N = 4): 0.04 ± 0.02 percent injected dose/gram | Biodistribution, heart ([1]; 30 min, N = 7): 1.12 ± 0.74 percent injected dose/gram | Biodistribution, heart ([1]; 60 min, N = 4): 0.25 ± 0.08 percent injected dose/gram | Biodistribution, heart ([1]; 90 min, N = 4): 0.11 ± 0.02 percent injected dose/gram | Biodistribution, heart ([1]; 180 min, N = 4): 0.07 ± 0.04 percent injected dose/gram | Biodistribution, kidney ([1]; 30 min, N = 7): 14.2 ± 8.47 percent injected dose/gram | Biodistribution, kidney ([1]; 60 min, N = 4): 6.97 ± 7.02 percent injected dose/gram | Biodistribution, kidney ([1]; 90 min, N = 4): 1.51 ± 0.22 percent injected dose/gram | Biodistribution, kidney ([1]; 180 min, N = 4): 0.50 ± 0.18 percent injected dose/gram | Biodistribution, Lrg int. ([1]; 30 min, N = 7): 3.82 ± 5.87 percent injected dose/gram | Biodistribution, Lrg int. ([1]; 60 min, N = 4): 0.62 ± 0.27 percent injected dose/gram | Biodistribution, Lrg int. ([1]; 90 min, N = 4): 0.18 ± 0.03 percent injected dose/gram | Biodistribution, Lrg int. ([1]; 180 min, N = 4): 0.16 ± 0.05 percent injected dose/gram | Biodistribution, liver ([1]; 30 min, N = 7): 11.0 ± 1.77 percent injected dose/gram | Biodistribution, liver ([1]; 60 min, N = 4): 12.5 ± 3.01 percent injected dose/gram | Biodistribution, liver ([1]; 90 min, N = 4): 11.0 ± 0.87 percent injected dose/gram | Biodistribution, liver ([1]; 180 min, N = 4): 4.62 ± 3.80 percent injected dose/gram | Biodistribution, lung ([1]; 30 min, N = 7): 2.07 ± 1.51 percent injected dose/gram | Biodistribution, lung ([1]; 60 min, N = 4): 0.85 ± 0.55 percent injected dose/gram | Biodistribution, lung ([1]; 90 min, N = 4): 0.33 ± 0.05 percent injected dose/gram | Biodistribution, lung ([1]; 180 min, N = 4): 0.14 ± 0.04 percent injected dose/gram | Biodistribution, muscle ([1]; 30 min, N = 7): 0.86 ± 0.81 percent injected dose/gram | Biodistribution, muscle ([1]; 60 min, N = 4): 0.27 ± 0.12 percent injected dose/gram | Biodistribution, muscle ([1]; 90 min, N = 4): 0.06 ± 0.01 percent injected dose/gram | Biodistribution, muscle ([1]; 180 min, N = 4): 0.03 ± 0.01 percent injected dose/gram | Biodistribution, Sm. int. ([1]; 30 min, N = 7): 1.89 ± 1.58 percent injected dose/gram | Biodistribution, Sm. int. ([1]; 60 min, N = 4): 0.54 ± 0.19 percent injected dose/gram | Biodistribution, Sm. int. ([1]; 90 min, N = 4): 0.27 ± 0.11 percent injected dose/gram | Biodistribution, Sm. int. ([1]; 180 min, N = 4): 0.08 ± 0.04 percent injected dose/gram | Biodistribution, spleen ([1]; 30 min, N = 7): 3.76 ± 6.48 percent injected dose/gram | Biodistribution, spleen ([1]; 60 min, N = 4): 0.45 ± 0.31 percent injected dose/gram | Biodistribution, spleen ([1]; 90 min, N = 4): 0.27 ± 0.04 percent injected dose/gram | Biodistribution, spleen ([1]; 180 min, N = 4): 0.13 ± 0.08 percent injected dose/gram | tumor uptake on co-injection with an excess of competing inhibitor ZJ-43 [2]: complete blockade of tumor uptake

O=C(O)CC[C@H](NC(=O)O[C@@H](CCCCNC(=O)c1ccc([125I])cc1)C(=O)O)C(=O)O [[^125I]31, (S)-2-(((((S)-1-carboxy-5-(4-[^125I]iodobenzamido)pentyl)oxy)carbonyl)amino) pentanedioic acid]
radiometabolites / metabolism in cells [3]: Polar radiometabolite(s) in extracellular and intracellular fluid were only seen; also recorded: observed only in PSMA+PC-3 PIP cells
